Consider one compound from patent publication US20250044299A1, “PROTEIN STABILITY ASSAY” (Medicines Discovery Catapult Limited, priority 2021, published 2025).

Assay [1] deals with T1, p38α MAPK (Homo sapiens, UniProt Q16539). The assay can be described thus: Protein stability assay, AlphaLISA endpoint, HEK293T cell lysate, AEA titration (Example 1). It is filed as binding. Set-up: endogenous in cells; host or cells: HEK293T. Particulars: compound at 10 or 100 μM, vs DMSO only. The protocol:
Lysate from HEK293T cells grown in continuous culture at 5% CO2/37° C. in full growth media (RPMI (Gibco 11835-063), 10% FCS (Gibco F7524) 1% Glutamax (Gibco 35050-061)) was produced by growing cells in flasks to 85% confluence, removing from the surface using 3 ml Tryple Select (Gibco 12563011), centrifuging (1000 rpm for 4 minutes) to pellet, washing cell pellet two times in DPBS (Gibco 14190-094), resuspending in 1 ml of DPBS (Gibco 14190-094) containing 1× HALT Protease and Phosphatase inhibitor cocktail (Thermo Scientific 78440) per flask and lysing by three cycles of a liquid nitrogen freeze followed by thawing at room temperature. […]
To run the protein stability assay, an aliquot of HEK293T cell lysate at 4 μg/μl was thawed at room temperature and 2 μl added to each well of a 384-well White ProxiPlate (Perkin Elmer 6008280) containing […], 100 μM AMG-548 (Bio-Techne 3920/10) or an equivalent volume of DMSO dosed using the Labcyte ECHO. […] While incubating, fresh 100% AEA (Acetone (11443733), Ethanol (10437341) and Acetic Acid (10365020), all from Fisher Scientific in a ratio of 50:50:0.1) denaturant was made in a glass bottle ready for use. An aliquot of 100% AEA was diluted to 50% in DPBS (Gibco 14190-094) ready to produce titration curves of denaturant. […]
Target sequence in this assay (Q16539 whole entry): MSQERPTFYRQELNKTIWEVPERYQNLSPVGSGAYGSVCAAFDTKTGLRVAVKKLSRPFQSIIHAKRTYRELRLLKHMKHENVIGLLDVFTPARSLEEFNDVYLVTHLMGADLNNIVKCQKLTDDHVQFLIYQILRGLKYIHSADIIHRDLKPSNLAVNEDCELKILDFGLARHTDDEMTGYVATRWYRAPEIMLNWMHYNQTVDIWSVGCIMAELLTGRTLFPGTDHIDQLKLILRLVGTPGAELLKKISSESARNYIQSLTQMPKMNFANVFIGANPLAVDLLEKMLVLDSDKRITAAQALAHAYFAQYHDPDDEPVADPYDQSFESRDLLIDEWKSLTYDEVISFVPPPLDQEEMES

Assay [2] deals with T1, p38α MAPK. The assay can be described thus: Whole cell protein stability assay, AlphaLISA endpoint, intact HEK293T cells, EA titration (Example 4). It is filed as cell-based. Set-up: endogenous in cells; host or cells: HEK293T. The conditions noted are these: 10 μM compound as printed, vs DMSO only. On the procedure:
HEK293T cells were grown in media (RPMI (Gibco 11835-063), 10% FCS (Gibco F7524) 1% Glutamax (Gibco 35050-061)) to approximately 85% confluence in a flask before harvesting from the surface using 3 ml Tryple Select (Gibco 12563011), washing cell pellet once in DPBS (Gibco 14190-094) and resuspending in media. Cells were counted and diluted in media to a density of 1×10^7 cell/ml.
To run the protein stability assay 5 μl of cells at a density of 1×10^7 cell/ml was added to each well of a 384-well White ProxiPlate ([…]) or an equivalent volume of DMSO dosed using the Labcyte ECHO. The contents of the plate were settled by a short pulse spin, sealed with a TopSeal-A Plus plate seal (Perkin Elmer 6050185) and the compound/lysate mixes incubated at ambient temperature for 30 minutes to 1 hour to allow potential target engagement by compound to occur. While incubating, fresh 100% EA (Ethanol (10437341) and Acetic Acid (10365020), all from Fisher Scientific in a ratio of 100:0.1) denaturant was made in a glass bottle ready for use. 100% EA was used to produce a titration curve of denaturant. […]
The dilution series to be added was made up as a 2× stock so that when 5 μl of denaturant was added to 5 μl lysate the final volume was 10 μl. […] After incubation the plate was read on a fluorescence detecting plate reader (Excitation 680 nm, Emission 615 nm) to determine well signals.
Target sequence in this assay (Q16539 whole entry): as above
For orientation: Bead proximity is the source of the signal in Alpha formats.

The target of assay [3] is T1, p38α MAPK. The assay can be described thus: Protein stability assay, HeLa p38α HiBiT cell lysate, HiBiT endpoint compared with AlphaLISA endpoint (Example 7). It is filed as binding. Set-up: lysate of HeLa p38α MAPK-linked HiBiT® endogenously tagged cells; endogenous in cells; host or cells: HeLa p38α HiBiT (genome-edited, endogenously tagged).
Target sequence in this assay (Q16539 2-360): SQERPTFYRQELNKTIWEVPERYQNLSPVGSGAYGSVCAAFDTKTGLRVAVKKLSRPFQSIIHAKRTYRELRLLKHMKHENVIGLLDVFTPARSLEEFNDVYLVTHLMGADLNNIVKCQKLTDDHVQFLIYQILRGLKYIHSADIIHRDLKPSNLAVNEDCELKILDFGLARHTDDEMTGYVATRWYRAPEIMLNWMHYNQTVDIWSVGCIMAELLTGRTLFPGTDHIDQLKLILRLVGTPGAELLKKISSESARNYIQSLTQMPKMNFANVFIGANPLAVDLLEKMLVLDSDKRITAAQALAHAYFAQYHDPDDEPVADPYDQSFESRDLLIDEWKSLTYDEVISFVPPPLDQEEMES
Method: Hela cells expressing the p38α target protein as a C-terminal fusion with a small peptide that includes the Promega HiBit® amino acid sequence were used as the starting material for lysate generation.
A solution containing 1:100 LgBiT® Protein and 1:100 Nano-Glo HiBiT® Lytic Substrate in PBS was created in a suitable volume. […] After incubation the plate was read on a luminescence detecting plate reader (3600 gain, 470-480 emission) to determine well signals.
Another assay addresses T2, p38α (Homo sapiens, UniProt Q16539).
T2 construct: endogenous in cells; host or cells: HEK293T
The assay can be described thus: Chemical protein stability assay, single-well per test compound format, AlphaLISA, HEK293T cell lysate (Example 9). It is filed as binding. Particulars: 10 μM compound, 384-well single wells. The protocol: For signal detection an antibody detection mix was made up no more than 20 minutes prior to use.

T2 sequence (Q16539 whole entry): as the sequence (Q16539 whole entry) above

Consider `Cn1c(NC[C@@H](N)Cc2ccccc2)nc(-c2ccncc2)c(-c2ccc3ccccc3c2)c1=O` [AMG-548], for which the “stabilisation of p38α MAPK protein (shift in protein denaturation curves)” value is recorded as “stabilisation of p38α MAPK protein in a dose dependent manner” on p38α MAPK [1] and “stabilisation of p38α MAPK protein compared to DMSO only treatment” on p38α MAPK [2]. For the same compound, the “stabilisation of p38α MAPK target protein (shift of denaturant titration curves)” value on p38α MAPK [3] (100 μM compound, AEA and EA titration, HiBiT or AlphaLISA endpoints, vs DMSO only) is reported as “clear shift between the titration curves”. The “effect of compound on protein unfolding, concentration response curves” value on p38α MAPK [3] (HiBiT endpoint, fixed dose of denaturant) is listed as “clear dose dependent effect”. The “single-well signal vs minimum signal (22% EA, DMSO vehicle)” value at p38α is “higher Maximum effect signal”.
